Data: publication PMC10073126, “Levosimendan inhibits disulfide tau oligomerization and ameliorates tau pathology in Tau^P301L-BiFC mice” (Experimental & Molecular Medicine, 2023)

Key:
Tau^P301L-BiFC mice [1] = assay: Novel object recognition test; format: in vivo, mouse; conditions: 5 mg/kg i.p., three times a week, 4 months; vehicle TG 0.49, WT 0.74
Description: (§1) For drug administration, LMTM and levosimendan were dissolved in PBS containing 40% polyethylene glycol (PEG; Sigma). Nine-month-old Tau^P301L-BiFC mice were intraperitoneally administered each drug for 4 months, three times a week, at a dosage of 5 mg/kg (n = 11 per group). Vehicle-treated Tau^P301L-BiFC mice and age-matched wild-type mice were used as control groups. Behavioral assessments were conducted as described below for one month from the end of drug administration. All mice were sacrificed at the age of 14 months for pathological analysis.
The novel object recognition test was performed as described previously. Briefly, for habituation, mice (n = 9 per group) were individually placed in the center of an open field arena (40 × 40 cm) and could freely explore for 15 min. The next day, in the training trial (familiarization phase), the mice could explore two identical objects in the open field for 10 min. […] The exploration time for the familiar (old) or the new (novel) object during the recognition phase was recorded using a Noldus EthoVision XT video tracking system. Memory was operationally defined by the recognition index calculated by dividing the time an animal spent exploring the novel object or old object by the total time spent exploring objects in the testing period. The exploration time was measured when the mouse pointed toward the object in the vicinity of the object.

Tau^P301L-BiFC mice [2] = assay: Tau immunoblot of RIPA-soluble and RIPA-insoluble brain lysates; format: in vivo, mouse; conditions: 5 mg/kg i.p., 4 months; for Level of disulfide-linked tau oligomers in the brain (nonreducing SDS-PAGE): RIPA-soluble brain lysates
Description: (§2) Band intensity was quantified using ImageJ software (NIH). All data were normalized to β-actin.
as §1
Brains were weighed and suspended in RIPA lysis buffer (Sigma) containing protease and phosphatase inhibitor cocktails. Then, tissues were mechanically disrupted using a cordless mortar and pestle (Sigma) and incubated at 4 °C for 2 h with shaking. The homogenates were centrifuged at 20,000 × g at 4 °C for 20 min. The supernatants were collected as RIPA-soluble fractions and stored at −80 °C. To prepare RIPA-insoluble fractions, the remaining pellets were washed once with RIPA lysis buffer containing 1 M sucrose, resuspended in 2% SDS solution (1 mL per gram of tissue) and incubated at RT for 1 h. The mixtures were centrifuged at 20,000 × g for 1 min at RT. The supernatant was collected as RIPA-insoluble fractions and preserved at −80 °C.

Tau^P301L-BiFC mice [3] = assay: BiFC fluorescence imaging of brain tissue sections; format: in vivo, mouse; conditions: 5 mg/kg i.p., 4 months; for Tau-BiFC intensity in the hippocampus compared to vehicle-treated group: hippocampal CA1; for Tau-BiFC intensity in the cortex compared to vehicle-treated group: somatosensory cortex layer V
Description: as §1
Brain tissue sections (n = 8 per group) were mounted onto slides. To reduce autofluorescence, brain tissue sections were stained with Sudan Black B solution (70% ethanol containing 0.05% Sudan Black B) for 10 min, washed three times with PBS containing 0.1% Triton X-100 (Sigma), and then washed with distilled water. For counterstaining of nuclei, brain tissues were stained with Hoechst (0.5 μg/mL) for 30 min. BiFC fluorescence (λex = 460–490 nm and λem = 500–550 nm) images were acquired using Axio Scan. Z1 (ZEISS). For quantitative analysis, the mean BiFC fluorescence intensity was measured in the somatosensory cortex (layer V) and hippocampal CA1 from AP;−1.82. To normalize the background fluorescence between the brain samples, the habenular region was used as an internal control. Using ImageJ software (NIH), the region of interest was masked, and the fluorescence intensity value was calculated. Data are shown as the average and standard deviation of the mean fluorescence intensities of brain images from six to eight animals.

tau [4] = assay: Tau immunoblot of primary hippocampal neuron lysates; format: cell-based, rat; conditions: primary neurons, tauK18^P301L; for Level of disulfide-linked tau oligomers compared to basal: nonreducing SDS-PAGE, control 1.8 ± 0.3-fold
Description: as §2
Primary hippocampal neurons were isolated from Day 18 embryonic Sprague‒Dawley rat brains as described previously. The neurons were seeded at a density of 3.5 × 10^5 cells per well on a poly-D-lysine-coated 6-well plate and maintained in neurobasal medium at 37 °C in a humidified atmosphere of 5% CO2. The neurobasal medium contained 2% B27 supplement, 0.5 mM GlutaMAX, 100 units/mL penicillin, and 100 μg/mL streptomycin. Every 3 days, 50% of the medium was replaced with fresh neurobasal medium. At DIV10, neurons were incubated with MB, LMTM (3 µM), or levosimendan (10 µM) in the presence of tauK18^P301L (10 µg/mL) for 48 h.

Tau^P301L-BiFC mice [5] = assay: AT8 immunofluorescence of brain tissue slices; format: in vivo, mouse; conditions: 5 mg/kg i.p., 4 months
Description: as §1
For immunofluorescence image analysis, brain tissue slices (n = 6–8 per group) were stained with AT8 (pS202/T205) antibody (1:200, Invitrogen). The primary antibody was detected using Alexa Flour 633-conjugated anti-mouse antibody (1:500, Abcam). Fluorescence images (λex = 620–640 nm and λem = 650–700 nm) were acquired using Axio Scan. Z1 (ZEISS).

tau [6] = target: tau (Homo sapiens, UniProt P10636); assay: Tau immunoblot of tau-BiFC cell lysates (reducing and nonreducing SDS-PAGE); conditions: tauK18^P301L-activated tau-BiFC cells; for Level of disulfide-linked tau oligomers compared to basal: nonreducing SDS-PAGE, control 2.4 ± 0.4-fold
Description: For reducing SDS‒PAGE analysis, cell or brain lysates were mixed with 4x Laemmli buffer containing 10% β-mercaptoethanol (BME) and boiled at 97 °C for 5 min. For nonreducing SDS‒PAGE analysis, cell or brain lysates were mixed with 4x Laemmli buffer without BME. For immunoblot analysis, 10 μg of each lysate was separated on a 10% SDS–PAGE gel and transferred to a PVDF membrane. The levels of total tau and phosphorylated tau were detected by anti-tau antibodies against 2B11 (IBL), Tau5 (Abcam), pSer199 (Abcam), pSer396 (Abcam), and pThr205 (Abcam). […] Band intensity was quantified using ImageJ software (NIH). All data were normalized to β-actin.

Tau^P301L-BiFC mice [7] = assay: Y-maze test; format: in vivo, mouse; conditions: 5 mg/kg i.p., three times a week, 4 months; vehicle TG 52.8 ± 2.6%
Description: as §1
Mice (n = 11 per group) were tested for spontaneous alternation behavior in a Y-shaped maze (60 cm in length of each arm, 20 cm in depth) using a standard protocol. Spontaneous alternation for 8 min was calculated as the proportion of alternations. Alteration (%) was defined as consecutive entries in three different arms (ABCs) divided by the number of possible alterations (total arm entries minus 2)[43].

tauK18 = target: T1, tauK18 (Homo sapiens, UniProt P10636); assay: TauK18 oligomerization assay in vitro (SDS-PAGE); format: biochemical; conditions: 5 h, nonreducing SDS-PAGE, DMSO control 50 ± 1.1%
T1 construct: under in vitro conditions using a purified tauK18 fragment; 6xHis; made in house; host or cells: E. coli BL21 (DE3)
Description: To induce tau oligomerization, tauK18 (0.5 mg/mL dissolved in PBS, pH 7.4) was incubated with each drug in the presence of DTT (100 μM) and heparin (0.1 mg/mL) at RT for 5 h with vigorous shaking. Then, tau oligomers were separated on 4–20% SDS‒PAGE gels under reducing and nonreducing conditions and visualized by Coomassie blue staining.

Chain of tau (Homo sapiens, UniProt P10636) (P10636 1-441 isoform P10636-8): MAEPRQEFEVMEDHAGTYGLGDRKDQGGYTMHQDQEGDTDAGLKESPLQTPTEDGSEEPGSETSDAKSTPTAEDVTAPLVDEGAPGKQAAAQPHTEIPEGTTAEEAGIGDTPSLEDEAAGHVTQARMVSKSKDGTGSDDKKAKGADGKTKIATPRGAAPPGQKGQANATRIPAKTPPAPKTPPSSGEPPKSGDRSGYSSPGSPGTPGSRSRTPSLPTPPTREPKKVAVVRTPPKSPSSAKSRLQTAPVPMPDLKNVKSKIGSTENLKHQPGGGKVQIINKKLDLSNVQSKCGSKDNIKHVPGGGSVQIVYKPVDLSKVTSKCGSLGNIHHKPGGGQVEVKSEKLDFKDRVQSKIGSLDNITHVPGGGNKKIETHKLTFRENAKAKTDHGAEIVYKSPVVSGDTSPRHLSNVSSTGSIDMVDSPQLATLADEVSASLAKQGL
Chain of tau (Homo sapiens, UniProt P10636) (P10636 1-441 isoform P10636-8): as above
T1 sequence (P10636 561-685 limits assumed): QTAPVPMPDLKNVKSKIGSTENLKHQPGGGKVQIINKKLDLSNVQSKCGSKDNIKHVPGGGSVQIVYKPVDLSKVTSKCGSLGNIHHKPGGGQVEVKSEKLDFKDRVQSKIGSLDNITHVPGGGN

Row | Compound | Recognition index (RI) for a novel object (Tau^P301L-BiFC mice [1]) | Level of disulfide-linked tau oligomers in the brain (nonreducing SDS-PAGE) (Tau^P301L-BiFC mice [2]) | Fold change, RIPA-insoluble tau (IB: Tau5) (Tau^P301L-BiFC mice [2]; vehicle 1.00) | Fold change, RIPA-soluble tau phosphorylation at S199 (Tau^P301L-BiFC mice [2]; vehicle 1.00) | Fold change, RIPA-soluble tau phosphorylation at S396 (Tau^P301L-BiFC mice [2]; vehicle 1.00) | Tau-BiFC intensity in the hippocampus compared to vehicle-treated group (Tau^P301L-BiFC mice [3]) | Tau-BiFC intensity in the cortex compared to vehicle-treated group (Tau^P301L-BiFC mice [3]) | AT8 immunoreactivity in the cortex compared to vehicle-treated group (Tau^P301L-BiFC mice [5]) | AT8 immunoreactivity in the hippocampus compared to vehicle-treated group (Tau^P301L-BiFC mice [5]) | Percent alternation (Tau^P301L-BiFC mice [7]) | Level of disulfide-linked tau oligomers (of total tau) (tauK18; 100 μM) | further results
1 | C[C@@H]1CC(=O)NN=C1c1ccc(NN=C(C#N)C#N)cc1 [Levosimendan] | 0.69 | significantly decreased the high-molecular-weight oligomers | 0.5 ± 0.2 fold | 0.5 ± 0.0 fold | 0.5 ± 0.1 fold | 0.4 ± 0.2 fold | 0.6 ± 01 fold | 0.4 ± 0.1 fold | 0.4 ± 0.2 fold | 70.4 ± 4.2% | 12.3 ± 15.0% | Fold change, RIPA-soluble total tau (IB: Tau5) (Tau^P301L-BiFC mice [2]; vehicle 1.00): decreased slightly; Level of disulfide-linked tau oligomers compared to basal (tau [4]; 10 μM): 0.5 ± 0.1 fold; Total tau level compared to basal (tau [4]; 10 μM, 48 h, control 1.5 ± 0.1-fold): 1.0 ± 0.1 fold; Tau phosphorylation at S199 compared to basal (tau [4]; 10 μM, 48 h, control 1.7 ± 0.1-fold): 0.9 ± 0.1 fold; Tau phosphorylation at S396 compared to basal (tau [4]; 10 μM, 48 h, control 2.0 ± 0.3-fold): 0.9 ± 0.1 fold; Level of disulfide-linked tau oligomers compared to basal (tau [6]; 45 μM): 0.8 ± 0.2 fold; Level of tau phosphorylation at T205 compared to basal (tau [6]; 45 μM, control 1.9 ± 0.2-fold): 1.0 ± 0.1 fold; Total tau level compared to basal (tau [6]; control 2.0 ± 0.1-fold): 1.0 ± 0.2 fold; Level of disulfide-linked tau oligomers (of total tau) (tauK18; 10 μM): 15.0 ± 6.0%; Level of disulfide-linked tau oligomers (of total tau) (tauK18; 30 μM): 15.7 ± 7.8%
2 | CN(C)c1ccc2c(c1)Sc1cc(N(C)C)ccc1N2.CS(=O)(=O)O.CS(=O)(=O)O [LMTM, leucomethylene blue mesylate] | 0.59 | did not increase or decrease | 0.7 ± 0.1 fold | 0.6 ± 0.1 fold | 0.8 ± 0.2 fold | 0.6 ± 0.1 fold | 0.7 ± 0.2 fold | 0.6 ± 0.2 fold | 0.5 ± 0.2 fold | 68.9 ± 3.5% | 79.2 ± 0.8% | Level of disulfide-linked tau oligomers compared to basal (tau [4]; 3 μM): 2.4 ± 0.3 fold; Level of disulfide-linked tau oligomers compared to basal (tau [6]; 5 μM): 1.9 ± 0.4 fold; Level of pS199-positive monomers compared to basal (tau [6]; 5 μM, reducing gel): 0.3 ± 0.0 fold; Level of pS199-positive oligomers compared to basal (tau [6]; 5 μM, reducing gel): 0.4 ± 0.1 fold; Level of pT205-positive monomers compared to basal (tau [6]; 5 μM, reducing gel): 0.2 ± 0.2 fold; Level of pT205-positive oligomers compared to basal (tau [6]; 5 μM, reducing gel): 0.6 ± 0.2 fold
